Assay results as given in US12043599B2, “Herbicidal compounds” (SYNGENTA PARTICIPATIONS AG, priority 2018, dated 2024).

How the values were obtained:
Assay type in all cases: in vivo
Conditions in all cases: 250 g/h, evaluated after 13 days
[1] = tested on: Alopecurus myosuroides (ALOMY); assay: Pre-emergence herbicidal glasshouse test, percentage damage
Outline: (§1)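 Damage assessed 13 days after treatment and expressed as a five-point score (5=80-100%; 4=60-79%; 3=40-59%; 2=20-39%; 1=0-19%). Compound applied at 250 g/h as an acetone/water/0.5% Tween 20 spray, pre-emergence (day 1 after sowing) or post-emergence (day 8). Plants kept at 24/16° C., 14 h light, 65% humidity.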

Avena fatua (AVEFA) [2] = assay: as above
Outline: as §1

[3] = tested on: Echinochloa crus-galli (ECHCG); assay: as above
Outline: as §1

Lolium perenne (LOLPE) [4] = assay: as above
Outline: as §1

Setaria faberi (SETFA) [5] = assay: as above
Outline: as §1

Setaria faberi (SETFA) [6] = assay: Post-emergence herbicidal glasshouse test, percentage damage
Outline: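 Percentage damage was scored 13 days after treatment on a five-point scale (1=0-19% to 5=80-100%). Treatments were post-emergence sprays on 8-day-old wheat, barley and SETFA plants in a glasshouse (24/16 °C day/night, 14 h light, 65% humidity), using acetone/water 50:50 with 0.5% Tween 20 at the stated rates. Wheat additionally received cloquintocet-mexyl safener at 50 g/ha.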

[7] = tested on: Alopecurus myosuroides (ALOMY); assay: as above
Outline: as §1

Avena fatua (AVEFA) [8] = assay: as above
Outline: as §1

[9] = tested on: Echinochloa crus-galli (ECHCG); assay: as above
Outline: as §1

Lolium perenne (LOLPE) [10] = assay: as above
Outline: as §1

Row | Structure (SMILES) | ALOMY PRE percentage damage (five point scale) [1] | AVEFA PRE percentage damage (five point scale) (Avena fatua (AVEFA) [2]) | ECHCG PRE percentage damage (five point scale) [3] | LOLPE PRE percentage damage (five point scale) (Lolium perenne (LOLPE) [4]) | SETFA PRE percentage damage (five point scale) (Setaria faberi (SETFA) [5]) | SETFA POST percentage damage (five point scale) (Setaria faberi (SETFA) [6]) | ALOMY POST percentage damage (five point scale) [7] | AVEFA POST percentage damage (five point scale) (Avena fatua (AVEFA) [8]) | ECHCG POST percentage damage (five point scale) [9] | LOLPE POST percentage damage (five point scale) (Lolium perenne (LOLPE) [10])
1 | CC#Cc1cc(C)c(C2C(=O)CC3(CCN([S+]([O-])C(C)(C)C)CC3)CC2=O)c(C)c1 (centres unmarked) [Compound A85] | 5 (5=80-100%) | 3 (3=40-59%) | 5 (5=80-100%) | 5 (5=80-100%) | 5 (5=80-100%) | 4 (4=60-79%) | 5 (5=80-100%) | 5 (5=80-100%) | 5 (5=80-100%) | 5 (5=80-100%)
2 | CC#Cc1cc(C)c(C2C(=O)CC3(CCN(C(=O)N(C)C(C)=O)CC3)CC2=O)c(C)c1 [Compound A86] | 5 (5=80-100%) | 5 (5=80-100%) | 5 (5=80-100%) | 5 (5=80-100%) | 5 (5=80-100%) | 5 (5=80-100%) | 5 (5=80-100%) | 5 (5=80-100%) | 5 (5=80-100%) | 5 (5=80-100%)
3 | CC#Cc1cc(C)c(C2C(=O)CC3(CCN(C(=O)C4=NOCC4)CC3)CC2=O)c(C)c1 [Compound A88] | 5 (5=80-100%) | 5 (5=80-100%) | 5 (5=80-100%) | 5 (5=80-100%) | 5 (5=80-100%) | 5 (5=80-100%) | 5 (5=80-100%) | 5 (5=80-100%) | 5 (5=80-100%) | 5 (5=80-100%)
4 | CC#Cc1cc(C)c(C2C(=O)CC3(CCN(C(=O)c4ccc(C(F)(F)F)cn4)CC3)CC2=O)c(C)c1 [Compound A89] | 5 (5=80-100%) | 5 (5=80-100%) | 5 (5=80-100%) | 5 (5=80-100%) | 5 (5=80-100%) | 5 (5=80-100%) | 5 (5=80-100%) | 5 (5=80-100%) | 5 (5=80-100%) | 5 (5=80-100%)
5 | CC#Cc1cc(C)c(C2C(=O)CC3(CCN(C(=O)c4cc(C(F)(F)F)ccn4)CC3)CC2=O)c(C)c1 [Compound A90] | 5 (5=80-100%) | 5 (5=80-100%) | 5 (5=80-100%) | 5 (5=80-100%) | 5 (5=80-100%) | 5 (5=80-100%) | 5 (5=80-100%) | 5 (5=80-100%) | 5 (5=80-100%) | 5 (5=80-100%)
6 | CC#Cc1cc(C)c(C2C(=O)CC3(CCN(C(=O)c4cccc(C(F)(F)F)n4)CC3)CC2=O)c(C)c1 [Compound A91] | 5 (5=80-100%) | 5 (5=80-100%) | 5 (5=80-100%) | 5 (5=80-100%) | 5 (5=80-100%) | 5 (5=80-100%) | 5 (5=80-100%) | 5 (5=80-100%) | 5 (5=80-100%) | 5 (5=80-100%)
7 | CC#Cc1cc(C)c(C2C(=O)CC3(CCN(C(=O)Cc4cccnc4)CC3)CC2=O)c(C)c1 [Compound A99] | 3 (3=40-59%) | 3 (3=40-59%) | 5 (5=80-100%) | 4 (4=60-79%) | 4 (4=60-79%) | 5 (5=80-100%) | 4 (4=60-79%) | 5 (5=80-100%) | 5 (5=80-100%) | 4 (4=60-79%)
8 | CC#Cc1cc(C)c(C2C(=O)CC3(CCN(C(=O)Cc4ccncc4)CC3)CC2=O)c(C)c1 [Compound A100] | 3 (3=40-59%) | 3 (3=40-59%) | 5 (5=80-100%) | 5 (5=80-100%) | 5 (5=80-100%) | 5 (5=80-100%) | 4 (4=60-79%) | 5 (5=80-100%) | 5 (5=80-100%) | 5 (5=80-100%)
9 | CC#Cc1cc(C)c(C2C(=O)CC3(CCN(C(=O)Cc4ccncn4)CC3)CC2=O)c(C)c1 [Compound A101] | 4 (4=60-79%) | 4 (4=60-79%) | 5 (5=80-100%) | 5 (5=80-100%) | 5 (5=80-100%) | 5 (5=80-100%) | 5 (5=80-100%) | 5 (5=80-100%) | 5 (5=80-100%) | 5 (5=80-100%)
10 | CC#Cc1cc(C)c(C2C(=O)CC3(CCN(C(=O)Cc4ncccn4)CC3)CC2=O)c(C)c1 [Compound A102] | 2 (2=20-39%) | 5 (5=80-100%) | 5 (5=80-100%) | 5 (5=80-100%) | 5 (5=80-100%) | 5 (5=80-100%) | 5 (5=80-100%) | 5 (5=80-100%) | 5 (5=80-100%) | 5 (5=80-100%)
11 | CC#Cc1cc(C)c(C2C(=O)CC3(CCN(C(=O)Cc4cccnn4)CC3)CC2=O)c(C)c1 [Compound A103] | 4 (4=60-79%) | 4 (4=60-79%) | 5 (5=80-100%) | 4 (4=60-79%) | 5 (5=80-100%) | 5 (5=80-100%) | 5 (5=80-100%) | 5 (5=80-100%) | 5 (5=80-100%) | 5 (5=80-100%)
